Source: US7407973B2, “Use of pirfenidone in therapeutic regimens” (Intermune, Inc., priority 2003, dated 2008)

Key:
Format in all cases: biochemical
cSRC = cSRC (Homo sapiens, UniProt P12931); assay: Enzymatic activity of human kinase in presence of pirfenidone; details: percent of control activity in absence of pirfenidone, concentration not given
Description: (§1) Enzymatic activity of various human kinases was assayed in the presence and the absence of pirfenidone. Percent enzyme activity of various human enzymes in the presence of substrate and pirfenidone are shown in FIGS. 1-5, and in Table 2, below, where “percent enzyme activity” is the percent of the control activity (e.g., in the absence of pirfenidone): […]

MAPKAP-K2 = MAPKAP-K2 (Homo sapiens, UniProt P49137); assay: as above; details: percent of control activity in absence of pirfenidone, concentration not given
Description: as §1

Lyn = Lyn (Homo sapiens, UniProt P07948); assay: as above; details: percent of control activity in absence of pirfenidone, concentration not given
Description: as §1

JNK2 = JNK2 (Homo sapiens, UniProt P45984); assay: as above; details: percent of control activity in absence of pirfenidone, concentration not given
Description: as §1

IKKβ = IKKβ (Homo sapiens, UniProt O14920); assay: as above; details: percent of control activity in absence of pirfenidone, concentration not given
Description: as §1

Yes = Yes (Homo sapiens, UniProt P07947); assay: as above; details: percent of control activity in absence of pirfenidone, concentration not given
Description: as §1

Rsk2 = Rsk2 (Homo sapiens, UniProt P51812); assay: as above; details: percent of control activity in absence of pirfenidone, concentration not given
Description: as §1

CHK2 = CHK2 (Homo sapiens, UniProt O96017); assay: as above; details: percent of control activity in absence of pirfenidone, concentration not given
Description: as §1

PDK1 = PDK1 (Homo sapiens, UniProt O15530); assay: as above; details: percent of control activity in absence of pirfenidone, concentration not given
Description: as §1

Rsk3 = Rsk3 (Homo sapiens, UniProt Q15349); assay: as above; details: percent of control activity in absence of pirfenidone, concentration not given
Description: as §1

GSK3β = GSK3β (Homo sapiens, UniProt P49841); assay: as above; details: percent of control activity in absence of pirfenidone, concentration not given
Description: as §1

Fyn = Fyn (Homo sapiens, UniProt P06241); assay: as above; details: percent of control activity in absence of pirfenidone, concentration not given
Description: as §1

PKCβII = PKCβII (Homo sapiens, UniProt P05771); assay: as above; details: percent of control activity in absence of pirfenidone, concentration not given
Description: as §1

CK2 = CK2 (Homo sapiens, UniProt P68400); assay: as above; details: percent of control activity in absence of pirfenidone, concentration not given
Description: as §1

MKK6 = MKK6 (Homo sapiens, UniProt P52564); assay: as above; details: percent of control activity in absence of pirfenidone, concentration not given
Description: as §1

PRK2 = PRK2 (Homo sapiens, UniProt Q16513); assay: as above; details: percent of control activity in absence of pirfenidone, concentration not given
Description: as §1

IKKα = IKKα (Homo sapiens, UniProt O15111); assay: as above; details: percent of control activity in absence of pirfenidone, concentration not given
Description: as §1

Lck = Lck (Homo sapiens, UniProt P06239); assay: as above; details: percent of control activity in absence of pirfenidone, concentration not given
Description: as §1

SAPK2β = SAPK2β (Homo sapiens, UniProt Q15759); assay: as above; details: percent of control activity in absence of pirfenidone, concentration not given
Description: as §1

Flt3 = Flt3 (Homo sapiens, UniProt P36888); assay: as above; details: percent of control activity in absence of pirfenidone, concentration not given
Description: as §1

CDK1/cyclinB = CDK1/cyclinB (Homo sapiens, UniProt P06493); assay: as above; details: percent of control activity in absence of pirfenidone, concentration not given
Description: as §1

SGK = SGK (Homo sapiens, UniProt O00141); assay: as above; details: percent of control activity in absence of pirfenidone, concentration not given
Description: as §1

SAPK4 = SAPK4 (Homo sapiens, UniProt O15264); assay: as above; details: percent of control activity in absence of pirfenidone, concentration not given
Description: as §1

MEK1 = MEK1 (Homo sapiens, UniProt Q02750); assay: as above; details: percent of control activity in absence of pirfenidone, concentration not given
Description: as §1

Rsk1 = Rsk1 (Homo sapiens, UniProt Q15418); assay: as above; details: percent of control activity in absence of pirfenidone, concentration not given
Description: as §1

Syk = Syk (Homo sapiens, UniProt P43405); assay: as above; details: percent of control activity in absence of pirfenidone, concentration not given
Description: as §1

PKBγ = PKBγ (Homo sapiens, UniProt Q9Y243); assay: as above; details: percent of control activity in absence of pirfenidone, concentration not given
Description: as §1

PKCa = assay: as above; details: percent of control activity in absence of pirfenidone, concentration not given
Description: as §1

PKCμ = PKCμ (Homo sapiens, UniProt Q15139); assay: as above; details: percent of control activity in absence of pirfenidone, concentration not given
Description: as §1

PKCη = PKCη (Homo sapiens, UniProt P24723); assay: as above; details: percent of control activity in absence of pirfenidone, concentration not given
Description: as §1

other kinases tested = assay: Human kinase panel, overall conclusion: other kinases
Description: as §1

Chain of Rsk2 (P51812 whole entry): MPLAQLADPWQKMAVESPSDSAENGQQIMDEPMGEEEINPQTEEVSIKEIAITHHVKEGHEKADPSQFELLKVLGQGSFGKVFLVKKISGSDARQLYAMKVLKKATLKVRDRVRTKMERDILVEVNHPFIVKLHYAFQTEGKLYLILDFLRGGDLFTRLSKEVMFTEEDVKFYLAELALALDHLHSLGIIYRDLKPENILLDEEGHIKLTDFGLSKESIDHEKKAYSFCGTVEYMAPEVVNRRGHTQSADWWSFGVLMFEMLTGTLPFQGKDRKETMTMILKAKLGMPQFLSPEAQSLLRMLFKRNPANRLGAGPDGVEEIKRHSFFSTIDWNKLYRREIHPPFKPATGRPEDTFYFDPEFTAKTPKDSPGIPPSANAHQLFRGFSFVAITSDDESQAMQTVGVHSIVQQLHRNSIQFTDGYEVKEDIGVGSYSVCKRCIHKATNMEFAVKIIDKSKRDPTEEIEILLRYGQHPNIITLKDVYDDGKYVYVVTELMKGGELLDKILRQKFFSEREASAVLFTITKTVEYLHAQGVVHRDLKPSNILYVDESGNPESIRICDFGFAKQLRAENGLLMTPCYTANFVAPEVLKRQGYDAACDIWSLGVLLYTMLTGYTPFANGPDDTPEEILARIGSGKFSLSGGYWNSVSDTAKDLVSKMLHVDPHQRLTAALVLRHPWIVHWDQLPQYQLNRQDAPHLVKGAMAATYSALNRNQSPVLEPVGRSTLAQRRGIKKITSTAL
Chain of PRK2 (Q16513 whole entry): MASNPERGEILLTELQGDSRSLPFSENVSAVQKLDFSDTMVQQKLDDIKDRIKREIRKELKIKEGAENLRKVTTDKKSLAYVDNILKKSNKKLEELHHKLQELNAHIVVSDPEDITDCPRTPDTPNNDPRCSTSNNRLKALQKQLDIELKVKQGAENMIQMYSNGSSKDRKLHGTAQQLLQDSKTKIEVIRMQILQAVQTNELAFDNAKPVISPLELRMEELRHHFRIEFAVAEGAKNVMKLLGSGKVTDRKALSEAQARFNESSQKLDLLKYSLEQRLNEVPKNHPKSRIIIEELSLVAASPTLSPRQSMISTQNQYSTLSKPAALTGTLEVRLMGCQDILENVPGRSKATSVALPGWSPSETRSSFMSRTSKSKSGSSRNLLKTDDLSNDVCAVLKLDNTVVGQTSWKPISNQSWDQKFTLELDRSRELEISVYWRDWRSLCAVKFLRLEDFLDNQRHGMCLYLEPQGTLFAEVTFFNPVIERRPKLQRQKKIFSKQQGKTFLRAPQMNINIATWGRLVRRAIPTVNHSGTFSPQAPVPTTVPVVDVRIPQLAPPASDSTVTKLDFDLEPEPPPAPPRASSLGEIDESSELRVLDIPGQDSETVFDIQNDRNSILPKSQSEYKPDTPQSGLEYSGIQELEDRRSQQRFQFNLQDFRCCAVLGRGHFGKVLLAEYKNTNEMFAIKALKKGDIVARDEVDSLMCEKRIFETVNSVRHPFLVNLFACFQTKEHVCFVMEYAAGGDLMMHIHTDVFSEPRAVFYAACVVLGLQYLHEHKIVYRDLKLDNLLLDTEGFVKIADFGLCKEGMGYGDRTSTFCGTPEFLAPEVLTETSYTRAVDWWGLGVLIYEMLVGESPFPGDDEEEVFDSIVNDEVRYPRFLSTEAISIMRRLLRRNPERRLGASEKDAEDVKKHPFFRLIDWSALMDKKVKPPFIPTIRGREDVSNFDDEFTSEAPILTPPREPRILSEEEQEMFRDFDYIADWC
Chain of JNK2 (P45984 whole entry): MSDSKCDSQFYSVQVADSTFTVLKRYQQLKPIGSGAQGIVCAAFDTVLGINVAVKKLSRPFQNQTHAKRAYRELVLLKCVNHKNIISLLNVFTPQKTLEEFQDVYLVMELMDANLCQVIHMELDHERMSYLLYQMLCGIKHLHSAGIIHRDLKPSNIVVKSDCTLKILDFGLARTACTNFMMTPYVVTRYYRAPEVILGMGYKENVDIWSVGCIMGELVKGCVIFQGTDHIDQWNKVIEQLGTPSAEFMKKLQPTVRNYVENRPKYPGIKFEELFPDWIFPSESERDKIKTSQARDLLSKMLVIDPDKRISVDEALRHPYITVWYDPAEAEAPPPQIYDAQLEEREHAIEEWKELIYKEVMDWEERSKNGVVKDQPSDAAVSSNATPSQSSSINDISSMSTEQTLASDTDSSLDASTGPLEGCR
Chain of MEK1 (Q02750 whole entry): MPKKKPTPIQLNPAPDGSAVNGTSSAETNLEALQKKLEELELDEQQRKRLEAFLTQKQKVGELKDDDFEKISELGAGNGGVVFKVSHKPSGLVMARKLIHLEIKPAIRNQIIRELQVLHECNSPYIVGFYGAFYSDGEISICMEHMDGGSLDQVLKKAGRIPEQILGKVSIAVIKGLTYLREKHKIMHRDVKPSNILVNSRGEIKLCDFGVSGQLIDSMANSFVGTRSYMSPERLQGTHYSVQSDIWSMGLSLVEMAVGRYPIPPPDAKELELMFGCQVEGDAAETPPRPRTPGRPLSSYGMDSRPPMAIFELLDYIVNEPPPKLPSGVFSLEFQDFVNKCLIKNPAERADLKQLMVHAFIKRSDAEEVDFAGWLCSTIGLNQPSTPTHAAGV
Chain of SGK (O00141 whole entry): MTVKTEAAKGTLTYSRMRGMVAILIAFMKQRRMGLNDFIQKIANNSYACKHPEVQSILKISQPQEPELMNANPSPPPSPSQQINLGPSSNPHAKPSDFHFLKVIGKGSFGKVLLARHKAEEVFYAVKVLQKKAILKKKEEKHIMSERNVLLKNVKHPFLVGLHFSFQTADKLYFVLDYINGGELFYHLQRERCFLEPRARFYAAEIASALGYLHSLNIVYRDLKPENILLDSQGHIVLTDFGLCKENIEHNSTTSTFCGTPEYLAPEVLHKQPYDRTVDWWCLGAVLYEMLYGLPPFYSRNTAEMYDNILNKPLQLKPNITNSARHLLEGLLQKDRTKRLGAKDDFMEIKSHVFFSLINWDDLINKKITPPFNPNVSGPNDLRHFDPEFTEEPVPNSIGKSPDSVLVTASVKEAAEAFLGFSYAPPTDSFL
Chain of CK2 (P68400 whole entry): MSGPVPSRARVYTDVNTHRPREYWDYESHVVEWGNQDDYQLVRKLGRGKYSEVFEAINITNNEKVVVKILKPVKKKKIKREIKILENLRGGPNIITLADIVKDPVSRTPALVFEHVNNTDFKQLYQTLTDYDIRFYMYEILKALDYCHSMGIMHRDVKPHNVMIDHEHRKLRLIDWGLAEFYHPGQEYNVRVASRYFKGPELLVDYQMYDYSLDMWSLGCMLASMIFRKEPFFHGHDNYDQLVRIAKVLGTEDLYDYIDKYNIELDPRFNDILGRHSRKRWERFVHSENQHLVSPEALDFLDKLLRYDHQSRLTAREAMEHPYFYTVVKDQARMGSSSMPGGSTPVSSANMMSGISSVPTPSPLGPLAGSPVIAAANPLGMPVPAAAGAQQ
Chain of PKCμ (Q15139 whole entry): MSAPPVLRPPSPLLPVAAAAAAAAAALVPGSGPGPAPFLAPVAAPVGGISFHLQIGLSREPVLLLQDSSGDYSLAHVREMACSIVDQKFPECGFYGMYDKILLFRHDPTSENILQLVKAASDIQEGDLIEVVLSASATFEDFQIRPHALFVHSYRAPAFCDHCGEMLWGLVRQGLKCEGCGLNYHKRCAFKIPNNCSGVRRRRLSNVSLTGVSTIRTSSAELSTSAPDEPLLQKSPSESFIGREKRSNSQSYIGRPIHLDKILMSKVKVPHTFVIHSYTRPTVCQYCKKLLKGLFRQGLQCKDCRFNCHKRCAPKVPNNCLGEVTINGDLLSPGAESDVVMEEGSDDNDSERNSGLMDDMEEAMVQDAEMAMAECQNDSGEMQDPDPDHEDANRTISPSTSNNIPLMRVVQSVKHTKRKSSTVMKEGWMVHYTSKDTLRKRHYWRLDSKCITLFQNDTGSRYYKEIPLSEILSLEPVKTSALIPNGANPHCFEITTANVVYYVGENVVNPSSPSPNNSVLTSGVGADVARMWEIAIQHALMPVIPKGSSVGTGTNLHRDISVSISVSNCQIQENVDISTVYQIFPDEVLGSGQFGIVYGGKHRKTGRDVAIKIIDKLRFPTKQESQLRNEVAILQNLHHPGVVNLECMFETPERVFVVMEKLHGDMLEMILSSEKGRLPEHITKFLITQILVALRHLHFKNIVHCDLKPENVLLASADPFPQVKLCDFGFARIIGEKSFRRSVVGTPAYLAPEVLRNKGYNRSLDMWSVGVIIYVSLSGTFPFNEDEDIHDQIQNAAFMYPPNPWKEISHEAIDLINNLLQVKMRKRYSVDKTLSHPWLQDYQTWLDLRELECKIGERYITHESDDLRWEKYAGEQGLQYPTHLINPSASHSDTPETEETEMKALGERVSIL
Chain of SAPK4 (O15264 whole entry): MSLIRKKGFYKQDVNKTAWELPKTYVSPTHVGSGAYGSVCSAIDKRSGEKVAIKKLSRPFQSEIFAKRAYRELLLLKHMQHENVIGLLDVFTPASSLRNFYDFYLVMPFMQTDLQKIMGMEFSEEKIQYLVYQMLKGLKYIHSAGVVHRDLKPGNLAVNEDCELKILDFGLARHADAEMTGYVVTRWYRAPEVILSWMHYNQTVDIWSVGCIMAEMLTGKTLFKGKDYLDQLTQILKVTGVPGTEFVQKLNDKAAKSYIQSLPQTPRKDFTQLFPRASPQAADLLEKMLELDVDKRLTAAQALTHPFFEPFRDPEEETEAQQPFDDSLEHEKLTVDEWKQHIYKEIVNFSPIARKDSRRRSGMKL
Chain of MKK6 (P52564 whole entry): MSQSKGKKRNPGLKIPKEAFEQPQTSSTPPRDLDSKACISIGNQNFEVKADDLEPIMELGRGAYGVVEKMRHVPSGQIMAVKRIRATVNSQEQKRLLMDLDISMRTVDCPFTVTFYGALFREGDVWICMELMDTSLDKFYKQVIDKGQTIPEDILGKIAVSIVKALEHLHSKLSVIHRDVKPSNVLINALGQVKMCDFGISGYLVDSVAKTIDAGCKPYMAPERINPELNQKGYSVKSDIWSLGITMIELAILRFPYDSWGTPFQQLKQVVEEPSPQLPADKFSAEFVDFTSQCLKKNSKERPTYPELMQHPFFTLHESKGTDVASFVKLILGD

% Activity (cSRC): 91% | % Activity (MAPKAP-K2): 97% | % Activity (Lyn): 92% | % Activity (JNK2): 97% | % Activity (IKKβ): 90% | % Activity (Yes): 104% | % Activity (Rsk2): 99% | % Activity (CHK2): 84% | % Activity (PDK1): 93% | % Activity (Rsk3): 115% | % Activity (GSK3β): 91% | % Activity (Fyn): 97% | % Activity (PKCβII): 100% | % Activity (CK2): 94% | % Activity (MKK6): 84% | % Activity (PRK2): 90% | % Activity (IKKα): 114% | % Activity (Lck): 104% | % Activity (SAPK2β): 74% | % Activity (Flt3): 103% | % Activity (CDK1/cyclinB): 102% | % Activity (SGK): 106% | % Activity (SAPK4): 98% | % Activity (MEK1): 100% | % Activity (Rsk1): 88% | % Activity (Syk): 78% | % Activity (PKBγ): 111% | % Activity (PKCa): 96% | % Activity (PKCμ): 96% | % Activity (PKCη): 88% | Inhibition of other kinases tested (conclusion from Table 2 data) (other kinases tested): does not substantially inhibit
SMILES: Cc1ccc(=O)n(-c2ccccc2)c1 [pirfenidone, 5-methyl-1-phenyl-2-(1H)-pyridone]
